Assay results from paper doi:10.1101/2024.12.09.627564, “Cannabinoid inhibition of mechanosensitive K^+ channels” (bioRxiv, 2024).

How the values were obtained:
Danio rerio TREK-1 = target: T1, Danio rerio TREK-1 (Danio rerio, UniProt F1QAI2); test: Patch recording of Danio rerio TREK-1 from cultured cells; type: biochemical; details: IC50, Danio rerio TREK-1, patches
T1 sequence (F1QAI2 1-426): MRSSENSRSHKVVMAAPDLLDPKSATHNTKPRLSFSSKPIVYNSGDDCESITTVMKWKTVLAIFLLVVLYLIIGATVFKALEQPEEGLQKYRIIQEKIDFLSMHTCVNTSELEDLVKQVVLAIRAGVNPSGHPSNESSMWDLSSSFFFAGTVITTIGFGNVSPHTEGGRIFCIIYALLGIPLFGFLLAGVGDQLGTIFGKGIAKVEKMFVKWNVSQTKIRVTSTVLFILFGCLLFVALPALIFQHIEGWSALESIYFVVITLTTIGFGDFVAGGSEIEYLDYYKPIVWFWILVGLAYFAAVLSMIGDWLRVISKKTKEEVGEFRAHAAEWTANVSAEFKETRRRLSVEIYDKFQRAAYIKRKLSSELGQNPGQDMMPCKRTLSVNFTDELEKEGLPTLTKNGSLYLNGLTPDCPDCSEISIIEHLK
Procedure: For patch clamp recording from cultured cells, drTREK-1 or hsTRAAK genes were cloned into a modified pCEH vector to generate C-terminally EGFP-tagged constructs. HEK293T were cultured in DMEM (Gibco, Thermo Fisher Scientific) with 10% FBS and 100 U ml−1 penicillin and 100 μg ml−1 streptomycin. Trypsinized cells were deposited on 12-mm glass coverslips in a six-well dish one to two days before transfection. For transfection, drTREK-1 or hsTRAAK plasmids were mixed with FuGENE 6 in OptiMEM at a 1:3 ratio with 1 μg DNA per well per construct and applied to cells in growth medium with antibiotics. Patching was conducted from 24 to 60 h post-transfection. Coverslips were placed in a perfusion chamber at room temperature in isotonic bath solution: 135 mM NaCl, 15 mM KCl, 1 mM CaCl2, 1 mM MgCl2, 10 mM HEPES, adjusted to a final pH of 7.5 with NaOH. Cells were chosen by a combination of the presence GFP fluorescence and cell morphology consistent with healthy interphase cells. […]
Patches were evaluated with voltage-step protocols to confirm TRAAK expression and minimal non-specific leak based on reversal potential. Currents were recorded using an Axopatch 200B amplifier (Molecular Devices) at a bandwidth of 1 kHz and digitized with an Digidata 1550B (Molecular Devices) at 100–500 kHz using pClamp10.7 software. […] Data were analyzed using Clampfit 10.7, Excel, and Graphpad Prism software. […]

Kv7.2/7.3 = tested on: Kv7.2/7.3; set-up: method as in PMID 35179483, PMID 37857637; details: activation; cited from earlier work

## C=C(C)[C@@H]1CCC(C)=C[C@H]1c1c(O)cc(CCCCC)cc1O [CBD, Cannabidiol]
Danio rerio TREK-1
  IC50: 11.1 µM
Kv7.2/7.3
  EC50: 0.2 µM
